Data published in ChEMBL document CHEMBL3044672, “N9- and N7-(Chloromethyl Phenymethyl)Chloropurine Derivatives from , '-Dichloroxylenes: Synthesis and Anticancer Activity” (2005).

What was measured:
Format in all cases: functional
HOP-92 = experiment: Cytotoxicity against Homo sapiens (human) HOP92 cells after 48 hr by sulforhodamine B assay; conditions: HOP-92, 48 h
RPMI-8226 = experiment: Cytotoxicity against Homo sapiens (human) RPMI8226 cells after 48 hr by sulforhodamine B assay; conditions: RPMI-8226, 48 h
MDA-MB-231 = experiment: Cytotoxicity against Homo sapiens (human) MDA-MB-231 cells after 48 hr by sulforhodamine B assay; conditions: MDA-MB-231, 48 h
786-0 = experiment: Cytotoxicity against Homo sapiens (human) 786-0 cells after 48 hr by sulforhodamine B assay; conditions: 786-0, 48 h
NCI-H522 = experiment: Cytotoxicity against Homo sapiens (human) NCI-H522 cells after 48 hr by sulforhodamine B assay; conditions: NCI-H522, 48 h; for CC50: read-out: LC50 (the source's name)
SW-620 = experiment: Cytotoxicity against Homo sapiens (human) SW620 cells after 48 hr by sulforhodamine B assay; conditions: SW-620, 48 h; for CC50: read-out: LC50 (the source's name)
MDA-MB-435 = experiment: Cytotoxicity against Homo sapiens (human) MDA-MB-435 cells after 48 hr by sulforhodamine B assay; conditions: MDA-MB-435, 48 h
SF-539 = experiment: Cytotoxicity against Homo sapiens (human) SF539 cells after 48 hr by sulforhodamine B assay; conditions: SF-539, 48 h
K562 = experiment: Cytotoxicity against Homo sapiens (human) K562 cells after 48 hr by sulforhodamine B assay; conditions: K562, 48 h; for CC50: read-out: LC50 (the source's name)
SNB-19 = experiment: Cytotoxicity against Homo sapiens (human) SNB19 cells after 48 hr by sulforhodamine B assay; conditions: SNB-19, 48 h
A549 = experiment: Cytotoxicity against Homo sapiens (human) A549 cells after 48 hr by sulforhodamine B assay; conditions: A549, 48 h; for CC50: read-out: LC50 (the source's name)
OVCAR-4 = experiment: Cytotoxicity against Homo sapiens (human) OVCAR4 cells after 48 hr by sulforhodamine B assay; conditions: OVCAR-4, 48 h
Hs-578T = experiment: Cytotoxicity against Homo sapiens (human) Hs 578T cells after 48 hr by sulforhodamine B assay
NCI-H226 = experiment: Cytotoxicity against Homo sapiens (human) NCI-H226 cells after 48 hr by sulforhodamine B assay; conditions: NCI-H226, 48 h; for CC50: read-out: LC50 (the source's name)
SN12C = experiment: Cytotoxicity against Homo sapiens (human) SN12C cells after 48 hr by sulforhodamine B assay
HCT-116 = experiment: Cytotoxicity against Homo sapiens (human) HCT116 cells after 48 hr by sulforhodamine B assay; conditions: HCT-116, 48 h; for CC50: read-out: LC50 (the source's name)
HCT-15 = experiment: Cytotoxicity against Homo sapiens (human) HCT15 cells after 48 hr by sulforhodamine B assay; conditions: HCT-15, 48 h; for CC50: read-out: LC50 (the source's name)
SNB-75 = experiment: Cytotoxicity against Homo sapiens (human) SNB75 cells after 48 hr by sulforhodamine B assay; conditions: SNB-75, 48 h; for CC50: read-out: LC50 (the source's name)
KM12 = experiment: Cytotoxicity against Homo sapiens (human) KM12 cells after 48 hr by sulforhodamine B assay; conditions: KM12, 48 h; for CC50: read-out: LC50 (the source's name)
UACC-257 = experiment: Cytotoxicity against Homo sapiens (human) UACC257 cells after 48 hr by sulforhodamine B assay; conditions: UACC-257, 48 h
A498 = experiment: Cytotoxicity against Homo sapiens (human) A498 cells after 48 hr by sulforhodamine B assay; conditions: A498, 48 h
COLO 205 = experiment: Cytotoxicity against Homo sapiens (human) COLO205 cells after 48 hr by sulforhodamine B assay; conditions: COLO 205, 48 h; for CC50: read-out: LC50 (the source's name)
UACC-62 = experiment: Cytotoxicity against Homo sapiens (human) UACC62 cells after 48 hr by sulforhodamine B assay; conditions: UACC-62, 48 h
ACHN = experiment: Cytotoxicity against Homo sapiens (human) ACHN cells after 48 hr by sulforhodamine B assay; conditions: for CC50: read-out: LC50 (the source's name)
TK-10 = experiment: Cytotoxicity against Homo sapiens (human) TK10 cells after 48 hr by sulforhodamine B assay; conditions: TK-10, 48 h; for CC50: read-out: LC50 (the source's name)
NCI-H460 = experiment: Cytotoxicity against Homo sapiens (human) NCI-H460 cells assessed as cell growth at 10^-4 M after 48 hr by Alamar blue assay; conditions: NCI-H460, 48 h, read-out: Activity
SF-268 = experiment: Cytotoxicity against Homo sapiens (human) SF268 cells assessed as cell growth at 10^-4 M after 48 hr by […] assay; conditions: SF-268, 48 h, read-out: Activity
[1] = read-out: LC50 (the source's name)

ClCc1cccc(Cn2cnc3c(Cl)ncnc32)c1
GI50 (HOP-92): 2.45 µM | TGI (HOP-92): 6.16 µM | CC50 (HOP-92; [1]): 31.6 µM | GI50 (RPMI-8226): 3.8 µM | TGI (RPMI-8226): 16.2 µM | CC50 (RPMI-8226; [1]): 87.1 µM | GI50 (MDA-MB-231): 1.99 µM | LC50 (MDA-MB-231): 8.12 µM | TGI (MDA-MB-231): 4.07 µM | GI50 (786-0): 6.16 µM | LC50 (786-0): 50.1 µM | TGI (786-0): 19.9 µM | GI50 (NCI-H522): 18.6 µM | TGI (NCI-H522): 66.1 µM | CC50 (NCI-H522): > 100 µM | GI50 (SW-620): 2.13 µM | TGI (SW-620): 4.36 µM | CC50 (SW-620): 8.91 µM | GI50 (MDA-MB-435): 1.69 µM | LC50 (MDA-MB-435): 6.45 µM | TGI (MDA-MB-435): 3.31 µM | GI50 (SF-539): 19.9 µM | LC50 (concentration killing 50% of cells) (SF-539): 61.7 µM | TGI (SF-539): 35.5 µM | GI50 (K562): 3.54 µM | TGI (K562): 15.1 µM | CC50 (K562): 75.9 µM | GI50 (SNB-19): 2.63 µM | LC50 (SNB-19): > 100 µM | TGI (SNB-19): 12.6 µM | GI50 (A549): 19.5 µM | TGI (A549): 39.8 µM | CC50 (A549): 79.4 µM | GI50 (OVCAR-4): 2.34 µM | LC50 (concentration killing 50% of cells) (OVCAR-4): 26.3 µM | TGI (OVCAR-4): 5.75 µM | GI50 (Hs-578T): 3.46 µM | LC50 (Hs-578T): 81.3 µM | TGI (Hs-578T): 11.5 µM | GI50 (NCI-H226): 2.13 µM | TGI (NCI-H226): 14.4 µM | CC50 (NCI-H226): 8.91 µM | GI50 (SN12C): 2.34 µM | LC50 (50% lethal concentration) (SN12C): 14.5 µM | TGI (SN12C): 5.12 µM | GI50 (HCT-116): 1.47 µM | TGI (HCT-116): 3.09 µM | CC50 (HCT-116): 6.31 µM | GI50 (HCT-15): 2.18 µM | TGI (HCT-15): 4.67 µM | CC50 (HCT-15): 10 µM | GI50 (SNB-75): 2.08 µM | TGI (SNB-75): 4.57 µM | CC50 (SNB-75): 10 µM | GI50 (KM12): 3.46 µM | TGI (KM12): 13.5 µM | CC50 (KM12): 3.98 µM | GI50 (UACC-257): 20.4 µM | LC50 (concentration killing 50% of cells) (UACC-257): 67.6 µM | TGI (UACC-257): 37.1 µM | GI50 (A498): 17.4 µM | LC50 (lethal concentration, 50% cell kill) (A498): 58.9 µM | TGI (A498): 31.6 µM | GI50 (COLO 205): 3.09 µM | TGI (COLO 205): 10.5 µM | CC50 (COLO 205): 74.1 µM | GI50 (UACC-62): 1.82 µM | LC50 (concentration causing 50% net cell kill) (UACC-62): 6.31 µM | TGI (UACC-62): 3.38 µM | GI50 (ACHN): 2.08 µM | TGI (ACHN): 4.07 µM | CC50 (ACHN): 8.12 µM | GI50 (TK-10): 4.57 µM | TGI (TK-10): 16.2 µM | CC50 (TK-10): 46.8 µM

ClCc1ccc(Cn2cnc3c(Cl)nc(Cl)nc32)cc1
GI50 (RPMI-8226): 1.74 µM | TGI (RPMI-8226): 3.8 µM | GI50 (MDA-MB-231): 1.82 µM | LC50 (MDA-MB-231): 7.24 µM | TGI (MDA-MB-231): 3.63 µM | GI50 (786-0): 14.1 µM | LC50 (786-0): 61.7 µM | TGI (786-0): 29.5 µM | growth at 100 µM (NCI-H460): 0% | GI50 (NCI-H522): 22.4 µM | TGI (NCI-H522): 46.8 µM | CC50 (NCI-H522): 97.7 µM | GI50 (SW-620): 3.8 µM | TGI (SW-620): 17.4 µM | CC50 (SW-620): 56.2 µM | GI50 (MDA-MB-435): 12.6 µM | LC50 (MDA-MB-435): 50.1 µM | TGI (MDA-MB-435): 25.1 µM | GI50 (SF-539): 17 µM | LC50 (concentration killing 50% of cells) (SF-539): 56.2 µM | TGI (SF-539): 30.9 µM | GI50 (K562): 23.4 µM | TGI (K562): 66.1 µM | CC50 (K562): > 100 µM | GI50 (SNB-19): 2.51 µM | LC50 (SNB-19): > 100 µM | TGI (SNB-19): 7.08 µM | GI50 (A549): 18.6 µM | TGI (A549): 37.1 µM | CC50 (A549): 74.1 µM | GI50 (OVCAR-4): 4.9 µM | LC50 (concentration killing 50% of cells) (OVCAR-4): 61.7 µM | TGI (OVCAR-4): 18.6 µM | GI50 (Hs-578T): 2.14 µM | LC50 (Hs-578T): > 100 µM | TGI (Hs-578T): 5.75 µM | GI50 (NCI-H226): 3.55 µM | TGI (NCI-H226): 9.55 µM | CC50 (NCI-H226): 33.9 µM | GI50 (SN12C): 7.24 µM | LC50 (50% lethal concentration) (SN12C): 51.3 µM | TGI (SN12C): 20.9 µM | growth at 100 µM (SF-268): 0% | GI50 (HCT-116): 1.7 µM | TGI (HCT-116): 3.63 µM | CC50 (HCT-116): 7.59 µM | GI50 (HCT-15): 1.86 µM | TGI (HCT-15): 3.8 µM | CC50 (HCT-15): 7.59 µM | GI50 (SNB-75): 3.16 µM | TGI (SNB-75): 9.33 µM | CC50 (SNB-75): 45.7 µM | GI50 (KM12): 1.82 µM | TGI (KM12): 3.24 µM | CC50 (KM12): 5.75 µM | GI50 (UACC-257): 16.2 µM | LC50 (concentration killing 50% of cells) (UACC-257): 69.2 µM | TGI (UACC-257): 33.1 µM | GI50 (A498): 12 µM | LC50 (lethal concentration, 50% cell kill) (A498): 52.5 µM | TGI (A498): 25.1 µM | GI50 (COLO 205): 3.47 µM | TGI (COLO 205): > 100 µM | CC50 (COLO 205): > 100 µM | GI50 (UACC-62): 2.04 µM | LC50 (concentration causing 50% net cell kill) (UACC-62): 9.33 µM | TGI (UACC-62): 4.37 µM | GI50 (ACHN): 2.34 µM | TGI (ACHN): 5.25 µM | CC50 (ACHN): 14.8 µM | GI50 (TK-10): 6.61 µM | TGI (TK-10): 20.4 µM | CC50 (TK-10): 44.7 µM
